Measured values reported in US20160051542A1 (CHANRX CORPORATION, priority 2013, published 2016).

Assays:
[1] = system: recent onset symptomatic AF/AFL; assay: Randomised double-blind single oral dose study: conversion of recent onset symptomatic AF/AFL to sinus rhythm (Example 1); assay type: in vivo, human; settings: for Conversion of Atrial Flutter, %: pure atrial flutter subjects (N 4), any time within 24 hours
Protocol: (§1) The vanoxerine or identical appearing placebo was randomly assigned and administered in a double-blinded fashion.
Inclusion criteria included: male or female over the age of […], symptomatic AF/AFL for more than 3 hours and less than 7 days, as dated by symptoms, and adherence to local clinical standards or the […] practice guidelines for AF/AFL regarding thromboembolic event prevention and treatment
Exclusion Criteria Included: • (a) Systolic blood pressure <100 mmHG, HR <50 bpm • (b) Average QTcF >440 ms, […] >140 ms • (c) Paced atrial or ventricular rhythm • (d) Serum potassium <3.5 meq/L • (e) History of receiving another Class 1 or Class III antiarrhythmic drug within 3 days of randomization, amiodarone (oral or IV) within 3 months • (f) Acute coronary syndrome within 30 days prior to randomization • (g) Aortic stenosis with AVA ≦1.0 cm^2 • (h) Mitral stenosis with MVA of <1.5 cm^2 • (i) Acute pulmonary edema/embolism • (j) Stroke within 30 days or TIA within 48 hours • (k) Untreated hyperthyroidism • (l) Acute pericarditis • (m) Postoperative AF/AFL within 7 days • (n) History of failed Direct current cardioversion • (o) History of polymorphic ventricular tachycardia (e.g. Torsade de Pointes) • (p) History or family history of long QT syndrome • (q) History of ventricular tachycardia requiring drug or device therapy • (r) History of NYHA Heart Failure Class III or IV or recent (within 1 month) onset of heart failure not related to rapid ventricular response AF • (s) Ejection fraction of 35% or less • (t) History of prior ablation therapy for cardiac arrhythmias
4-Hour Efficacy Endpoints: • (a) the proportion of subjects who convert to sinus rhythm for at least 1 minute through 4 hours after start of study drug. • (b) the proportion of subjects in sinus rhythm at 4 hours after start of study drug • (c) time to restoration of sinus rhythm within 4 hours
24-Hour Efficacy Endpoints • (a) the proportion of subjects who convert to sinus rhythm for at least 1 minute through 24 hours after start of study drug. • (b) the proportion of subjects in sinus rhythm at 24 hours after start of study drug • (c) time to restoration of sinus rhythm within 24 hours
Statistical Considerations: • (a) Placebo subjects in all dose cohorts pooled to create one placebo dose group for comparison to the active dose groups • (b) each dose group compared separately with placebo • (c) Fisher's exact tests for difference in proportions between each dose level and placebo • (d) Time to restoration tested using the Kaplan-Meier method with difference in survivor functions; Log-Rank test used to compare each dose level with placebo • (e) No correction for multiple comparisons among dose groups.

[2] = Adverse events in the single dose AF/AFL study (Example 1); assay type: in vivo, human
Source text: as §1

[3] = Daily dosing for 11 consecutive days, PK and hemodynamics (Example 2); assay type: in vivo, human
[4] = Daily dosing for 14 days in healthy patients (Example 3); assay type: in vivo, human; settings: 25, 75 and 125 mg daily for 14 days, meal 15 minutes prior to dosing
Protocol: A standardized meal was served 15 minutes prior to each dosing.

[5] = Daily dosing for 7 days in four patients (Example 4); assay type: in vivo, human; settings: 50, 100 and 150 mg daily, all patients
[6] = Preliminary studies of daily use over 7, 10 and 14 days; assay type: in vivo; settings: 75, 100, 125 and 150 mg a day over 7, 10 and 14 days
Source text: However, control and prevention of events of cardiac arrhythmia are important to these patients to prevent future re-occurrences and the deleterious effects and morbidity.

[7] = human, in vivo
Source text: Furthermore, steady state plasma levels are achieved within 3 days of oral dosing in some studies and up to 14 days in other studies. In human studies, the typical time is between about 3-11 days for reaching steady state status. […] This provides for an opportunity to achieve steady state plasma levels for restoration or maintenance of normal sinus rhythm in mammals.

## Fc1ccc(C(OCCN2CCN(CCCc3ccccc3)CC2)c2ccc(F)cc2)cc1 [vanoxerine, 1-[2-[bis(4-fluorophenyl)methoxy]ethyl]-4-(3-phenylpropyl)piperazine]
[1]; 200 mg single dose, 0-4 hr
  Percent conversion to sinus rhythm: 18%
[1]; 200 mg single dose, 0-8 hr
  Percent conversion to sinus rhythm: 45%
[1]; 200 mg single dose, 0-24 hr
  Percent conversion to sinus rhythm: 59%
[1]; 200 mg
  Conversion of Atrial Flutter, %: 50%
[1]; 300 mg single dose, 0-4 hr
  Percent conversion to sinus rhythm: 40%
[1]; 300 mg single dose, 0-8 hr
  Percent conversion to sinus rhythm: 52%
[1]; 300 mg single dose, 0-24 hr
  Percent conversion to sinus rhythm: 64%
[1]; 300 mg
  Conversion of Atrial Flutter, %: 75%
[1]; 400 mg single dose, 0-4 hr
  Percent conversion to sinus rhythm: 52%
[1]; 400 mg single dose, 0-8 hr
  Percent conversion to sinus rhythm: 76%
[1]; 400 mg single dose, 0-24 hr
  Percent conversion to sinus rhythm: 84%
[1]; 400 mg
  Conversion of Atrial Flutter, %: 75%
[1]; all doses of vanoxerine, at about 7 hours
  Conversion to sinus rhythm: greater than 40%
[1]; all doses, at 12 hours
  Conversion to sinus rhythm: greater than 50%
[1]; all doses, at about 16 hours
  Conversion to sinus rhythm: ~60%
[2]; 200 mg
  Number of adverse events reported: 8 AEs
[2]; 200 mg (22 subjects)
  Subjects reporting adverse events, N (%): 4 (18%) subjects
[2]; 300 mg
  Number of adverse events reported: 12 AEs
[2]; 300 mg (25 subjects)
  Subjects reporting adverse events, N (%): 7 (28%) subjects
[2]; 400 mg
  Number of adverse events reported: 23 AEs
[2]; 400 mg (25 subjects)
  Subjects reporting adverse events, N (%): 10 (40%) subjects
[2]; 200, 300 and 400 mg single doses
  Tolerability: well tolerated at all doses
[2]; all doses
  1:1 AFL post dose: No 1:1 AFL seen post dose in any subject
[2]; all doses, neither related to the study drug
  Serious adverse events, all doses: two
[2]; single doses 200-400 mg
  Proarrhythmia: absence of proarrhythmia
[3]; 25 mg daily
  Plasma levels: not detectable after 8 hours
[3]; 50, 75 and 100 mg doses
  PK linearity: linear and dose proportional
  Plasma levels: detectable at 24 hours
  Time at which steady state was reached: ≤ 8 days
[3]; 75 and 100 mg doses
  Heart rate and systolic blood pressure: increased slightly in most subjects
[4]
  Adverse events: No significant adverse events
[5]
  Time to steady state levels: within one week
[6]
  Heart rate and systolic blood pressure: may lead to increased heart rate and systolic blood pressure
[7]
  Time for reaching steady state status: 3 to 11 days
